# Source: publication PMC12037037 (Proceedings of the National Academy of Sciences of the …, 2025)
# System: C57BL/6J mice
# Test: Sucrose preference test (SPT) after chronic CORT
# Type: in vivo
# Conditions: 1 mg/kg IP, two injections 48 h apart, CORT-sensitive mice; main effect of treatment P = 0.0364
# Description: remained housed in groups of three for the remainder of the study. All rats were acclimated to the colony room for up to one week prior to dosing. During the period of acclimation, rats were examined and handled daily, and weighed to assure adequate health and suitability. The room temperature was maintained between 20 °C and 23 °C with a relative humidity of 30%–70%. Lab Rodent Diet 5001 (W.F. Fisher, Cat # 11015) and water were provided ad libitum. Animals were randomly assigned across treatment groups. All testing was performed during the light phase of the light/dark cycle. Behavioral testing was conducted according to established protocols approved by the IACUC committee and PGI Standard Operation Procedures (SOP). […] All animals were carefully monitored to ensure their safety in the swim test and any animal unable to maintain a posture with its nose above water was immediately removed from the water and not used further in the study. […] This test lasted for 5 min and was video recorded. A blinded experimenter manually scored the videos for swimming, climbing, and immobility behavior. Scoring of the forced swim test was performed by trained technicians using a time sampling technique in which the animal in the video recorded test was viewed every 5 seconds and the behavior observed was noted (e.g., immobile, swimming, or climbing). […]
smiles,measurement,value
CCN(CC)C(=O)[C@@H]1C=C2c3cccc4ccn(c34)C[C@H]2N(C)C1 [(+)-JRT],Effect on CORT-induced anhedonia (sucrose preference),rescued CORT-induced anhedonia
